{"source": "patent US20080160163A1", "about": "“Reduction of Digestibility of Phosphorus” (BAYER HEALTHCARE AG, priority 2005, published 2008)", "key": {"[1]": {"tested_on": "adult healthy domestic cats", "details": "0.3 and 3.0 g per kg of feed for two weeks", "description": "Within the context of a larger study, 24 adult healthy domestic cats of both genders, individually fed with a commercially available regular canned diet (‘Petley's Gourmet Supreme Beef Casserole’, PROMEAL (PTY) Ltd., containing 0.19% phosphorus corresponding to 1.13% phosphorus in the dry matter), were randomised to three equal groups of eight animals which were fed for two weeks with dose levels corresponding to 0, 0.3, and 3.0 grams of lanthanum carbonate octahydrate per kg of feed in their daily feed ration.\n(§1) During the study the amount of food consumed was recorded daily and the animals were observed daily for the possible occurrence of adverse events. In the faeces collected over a three-day sampling period at the end of the study, the phosphorus levels were measured. On comparing the dietary intake of phosphorus with the excretion of phosphorus in the faeces, the apparent phosphorus digestibility was calculated according to the following equation: […]"}, "[2]": {"tested_on": "adult healthy domestic cats", "description": "Fifteen adult healthy domestic cats of both genders were individually fed with commercially available regular canned diet (Premium Pate rich in lamb, IAMS Pet Food GmbH & Co containing 0.26% of phosphorus corresponding to 1.13% phosphorus in the dry matter). The aim of the study was to assess the palatability and safety of lanthanum carbonate octahydrate especially in high doses. Therefore 10 cats were fed lanthanum carbonate octahydrate in their daily feed ration at increasing doses. The study began with a dose level of about 12-15 g per kg of feed (dry matter). The dose was doubled every two weeks up to a dose level of about 96-120 g per kg of feed (dry matter). Five cats were given the feed without any lanthanum carbonate octahydrate and served as controls.\nPalatability was assessed daily by observing the general acceptance of the feed. Tolerability and safety were assessed by measuring the blood serum phosphate levels and body weight at regular intervals as well as by daily observations concerning the health status and the possible occurrence of adverse events."}, "[3]": {"tested_on": "adult healthy female beagle dogs", "details": "dogs, 1.75, 5.0 and 17.5 g per kg of feed", "description": "A total of twelve adult healthy female beagle dogs were individually fed with a commercially available regular canned feed (‘Eukanuba Adult with much lamb’, IAMs Pet Food Ltd., containing 0.25% of phosphorus corresponding to 1.09% phosphorus in the dry matter). At weekly intervals, their diet was supplemented with increasing amounts of lanthanum carbonate octahydrate, thus resulting in final concentrations of the feed additive of 0, 1.75, 5.0, and 17.5 g of lanthanum carbonate octahydrate per kg of feed.\nas §1, with “two-day” for “three-day”"}, "[4]": {"details": "up to a dose level of 1 g/kg of body weight (=about 108 mg per kg of dry feed)"}}}
{"smiles": "O.O.O.O.O.O.O.O.O=C([O-])[O-].O=C([O-])[O-].O=C([O-])[O-].[La+3].[La+3]", "note": "[lanthanum carbonate octahydrate]", "values": [{"measurement": "tolerance in the study animals", "setting": "[1]", "result": "no negative effect"}, {"measurement": "apparent phosphorus digestibility", "setting": "[1]; FIG. 1.2", "result": "corresponding decrease"}, {"measurement": "phosphorus content in the faeces", "setting": "[1]; faeces collected over three days, FIG. 1.1", "result": "dose-dependently increased"}, {"measurement": "tolerance of the study animals", "setting": "[2]; even in extremely high doses", "result": "no negative effect"}, {"measurement": "palatability or acceptance of the feed or its safety compared to the control cats", "setting": "[2]; increasing doses vs control cats", "result": "no difference"}, {"measurement": "adverse events", "setting": "[2]; [4]", "result": "no limiting adverse events"}, {"measurement": "body weight", "setting": "[2]; [4]", "result": "no changes"}, {"measurement": "serum phosphate levels", "setting": "[2]; [4]", "result": "no changes"}, {"measurement": "tolerance in the study animals", "setting": "[3]", "result": "no negative effect"}, {"measurement": "apparent phosphorus digestibility", "setting": "[3]; FIG. 2.2", "result": "corresponding decrease"}, {"measurement": "phosphorus content in the faeces", "setting": "[3]; increased weekly, faeces collected over two days, FIG. 2.1", "result": "dose-dependently increased"}]}
